Laboratory results as given in PubChem BioAssay (NCI).
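Dose response: 5 concentrations. Exposure: 48 h. Format: 96-well plates. Endpoint: linear interpolation; highest concentration if not reached. At the GI50, growth is halved. At the TGI there is no net growth.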

Legend:
Assay in all cases: NCI-60 cell line screen, 48 h
CAKI-1 renal = system: CAKI-1 renal
UACC-62 melanoma = system: UACC-62 melanoma
TK-10 renal = system: TK-10 renal
NCI/ADR-RES ovarian = system: NCI/ADR-RES ovarian
SF-539 CNS = system: SF-539 CNS
MDA-MB-435 = system: MDA-MB-435
MALME-3M melanoma = system: MALME-3M melanoma
SNB-19 CNS = system: SNB-19 CNS
SW-620 colon = system: SW-620 colon
UACC-257 melanoma = system: UACC-257 melanoma
OVCAR-8 ovarian = system: OVCAR-8 ovarian
COLO 205 colon = system: COLO 205 colon
786-0 renal = system: 786-0 renal
OVCAR-3 ovarian = system: OVCAR-3 ovarian
K-562 leukemia = system: K-562 leukemia
MOLT-4 leukemia = system: MOLT-4 leukemia
BT-549 breast = system: BT-549 breast
UO-31 renal = system: UO-31 renal
A498 renal = system: A498 renal
SF-295 CNS = system: SF-295 CNS
MDA-MB-231 breast = system: MDA-MB-231 breast
NCI-H226 lung = system: NCI-H226 lung
T-47D breast = system: T-47D breast
KM12 colon = system: KM12 colon
EKVX NSCLC = system: EKVX NSCLC
HCT-116 colon = system: HCT-116 colon
HOP-92 NSCLC = system: HOP-92 NSCLC
HL-60(TB) leukemia = system: HL-60(TB) leukemia
HCT-15 colon = system: HCT-15 colon
IGROV1 ovarian = system: IGROV1 ovarian
HS 578T breast = system: HS 578T breast
SK-MEL-2 melanoma = system: SK-MEL-2 melanoma
OVCAR-5 ovarian = system: OVCAR-5 ovarian
M14 melanoma = system: M14 melanoma
RXF 393 renal = system: RXF 393 renal
HCC-2998 colon = system: HCC-2998 colon
SNB-75 CNS = system: SNB-75 CNS
SF-268 CNS = system: SF-268 CNS
NCI-H522 lung = system: NCI-H522 lung
OVCAR-4 ovarian = system: OVCAR-4 ovarian
A549 NSCLC = system: A549 NSCLC
SR leukemia = system: SR leukemia
SK-MEL-5 melanoma = system: SK-MEL-5 melanoma
SN12C renal = system: SN12C renal
DU-145 prostate = system: DU-145 prostate
MCF7 breast = system: MCF7 breast
SK-OV-3 ovarian = system: SK-OV-3 ovarian
NCI-H460 lung = system: NCI-H460 lung
RPMI-8226 leukemia = system: RPMI-8226 leukemia
HOP-62 NSCLC = system: HOP-62 NSCLC
HT29 colon = system: HT29 colon
ACHN renal = system: ACHN renal
CCRF-CEM leukemia = system: CCRF-CEM leukemia
PC-3 prostate = system: PC-3 prostate
U251 CNS = system: U251 CNS
SK-MEL-28 melanoma = system: SK-MEL-28 melanoma

Q: With `C=C(C)[C@@H]1CC[C@]2(COC)CC[C@]3(C)[C@H](CC[C@@H]4[C@@]5(C)CCCNC(C)(C)[C@@H]5CC[C@]43C)[C@@H]12` as the compound, how does the GI50 (CAKI-1 renal) read?
A: 1.59 µM

Q: And the TGI (CAKI-1 renal)?
A: 3.07 µM

Q: What about the GI50 (UACC-62 melanoma) of the same compound?
A: 1.68 µM

Q: What about the TGI (UACC-62 melanoma) of the same compound?
A: 3.11 µM

Q: And the GI50 (TK-10 renal)?
A: 1.91 µM

Q: What about the TGI (TK-10 renal) of the same compound?
A: 3.52 µM

Q: And the GI50 (NCI/ADR-RES ovarian)?
A: 1.68 µM

Q: And the TGI (NCI/ADR-RES ovarian)?
A: 3.4 µM

Q: And the GI50 (SF-539 CNS)?
A: 1.57 µM

Q: And the TGI (SF-539 CNS)?
A: 3.02 µM

Q: And the GI50 (MDA-MB-435)?
A: 1.61 µM

Q: And the TGI (MDA-MB-435)?
A: 3.09 µM

Q: What about the GI50 (MALME-3M melanoma) of the same compound?
A: 1.42 µM

Q: What about the TGI (MALME-3M melanoma) of the same compound?
A: 3.07 µM

Q: What about the GI50 (SNB-19 CNS) of the same compound?
A: 1.71 µM

Q: What about the TGI (SNB-19 CNS) of the same compound?
A: 3.13 µM

Q: What about the GI50 (SW-620 colon) of the same compound?
A: 1.77 µM

Q: And the TGI (SW-620 colon)?
A: 3.71 µM

Q: What about the GI50 (UACC-257 melanoma) of the same compound?
A: 1.93 µM

Q: What about the TGI (UACC-257 melanoma) of the same compound?
A: 3.76 µM

Q: What about the GI50 (OVCAR-8 ovarian) of the same compound?
A: 1.91 µM

Q: What about the TGI (OVCAR-8 ovarian) of the same compound?
A: 4 µM

Q: And the GI50 (COLO 205 colon)?
A: 1.49 µM

Q: And the TGI (COLO 205 colon)?
A: 3.22 µM

Q: What about the GI50 (786-0 renal) of the same compound?
A: 1.75 µM

Q: And the TGI (786-0 renal)?
A: 3.48 µM

Q: What about the GI50 (OVCAR-3 ovarian) of the same compound?
A: 1.9 µM

Q: And the TGI (OVCAR-3 ovarian)?
A: 3.73 µM

Q: What about the GI50 (K-562 leukemia) of the same compound?
A: 0.323 µM

Q: What about the TGI (K-562 leukemia) of the same compound?
A: 1.66 µM

Q: What about the GI50 (MOLT-4 leukemia) of the same compound?
A: 1.25 µM

Q: And the TGI (MOLT-4 leukemia)?
A: 3.49 µM

Q: And the GI50 (BT-549 breast)?
A: 1.75 µM

Q: What about the TGI (BT-549 breast) of the same compound?
A: 3.21 µM

Q: What about the GI50 (UO-31 renal) of the same compound?
A: 1.45 µM

Q: What about the TGI (UO-31 renal) of the same compound?
A: 2.78 µM

Q: What about the GI50 (A498 renal) of the same compound?
A: 1.66 µM

Q: What about the TGI (A498 renal) of the same compound?
A: 3.11 µM

Q: And the GI50 (SF-295 CNS)?
A: 1.78 µM

Q: What about the TGI (SF-295 CNS) of the same compound?
A: 3.24 µM

Q: What about the GI50 (MDA-MB-231 breast) of the same compound?
A: 1.8 µM

Q: And the TGI (MDA-MB-231 breast)?
A: 3.38 µM

Q: What about the GI50 (NCI-H226 lung) of the same compound?
A: 1.93 µM

Q: And the TGI (NCI-H226 lung)?
A: 3.93 µM

Q: And the GI50 (T-47D breast)?
A: 1.18 µM

Q: And the TGI (T-47D breast)?
A: 2.99 µM

Q: And the GI50 (KM12 colon)?
A: 1.82 µM

Q: What about the TGI (KM12 colon) of the same compound?
A: 3.65 µM

Q: And the GI50 (EKVX NSCLC)?
A: 1.63 µM

Q: And the TGI (EKVX NSCLC)?
A: 3.14 µM

Q: And the GI50 (HCT-116 colon)?
A: 1.13 µM

Q: What about the TGI (HCT-116 colon) of the same compound?
A: 2.59 µM

Q: What about the GI50 (HOP-92 NSCLC) of the same compound?
A: 1.15 µM

Q: What about the TGI (HOP-92 NSCLC) of the same compound?
A: 2.47 µM

Q: And the GI50 (HL-60(TB) leukemia)?
A: 1.33 µM

Q: And the TGI (HL-60(TB) leukemia)?
A: 3.51 µM

Q: What about the GI50 (HCT-15 colon) of the same compound?
A: 1.43 µM

Q: What about the TGI (HCT-15 colon) of the same compound?
A: 2.92 µM

Q: And the GI50 (IGROV1 ovarian)?
A: 1.56 µM

Q: And the TGI (IGROV1 ovarian)?
A: 3.01 µM

Q: What about the GI50 (HS 578T breast) of the same compound?
A: 2.53 µM

Q: And the TGI (HS 578T breast)?
A: 5.57 µM

Q: And the GI50 (SK-MEL-2 melanoma)?
A: 1.84 µM

Q: And the TGI (SK-MEL-2 melanoma)?
A: 3.52 µM

Q: And the GI50 (OVCAR-5 ovarian)?
A: 1.66 µM

Q: And the TGI (OVCAR-5 ovarian)?
A: 3.11 µM

Q: What about the GI50 (M14 melanoma) of the same compound?
A: 1.63 µM

Q: What about the TGI (M14 melanoma) of the same compound?
A: 3.34 µM

Q: And the GI50 (RXF 393 renal)?
A: 1.55 µM

Q: And the TGI (RXF 393 renal)?
A: 2.94 µM

Q: And the GI50 (HCC-2998 colon)?
A: 1.26 µM

Q: What about the TGI (HCC-2998 colon) of the same compound?
A: 2.67 µM

Q: What about the GI50 (SNB-75 CNS) of the same compound?
A: 1.75 µM

Q: And the TGI (SNB-75 CNS)?
A: 3.92 µM

Q: And the GI50 (SF-268 CNS)?
A: 1.95 µM

Q: What about the TGI (SF-268 CNS) of the same compound?
A: 3.85 µM

Q: And the GI50 (NCI-H522 lung)?
A: 1.73 µM

Q: And the TGI (NCI-H522 lung)?
A: 3.42 µM

Q: What about the GI50 (OVCAR-4 ovarian) of the same compound?
A: 1.54 µM

Q: And the TGI (OVCAR-4 ovarian)?
A: 3 µM

Q: And the GI50 (A549 NSCLC)?
A: 1.6 µM

Q: What about the TGI (A549 NSCLC) of the same compound?
A: 3.16 µM

Q: And the GI50 (SR leukemia)?
A: 0.481 µM

Q: And the TGI (SR leukemia)?
A: 2.51 µM

Q: And the GI50 (SK-MEL-5 melanoma)?
A: 1.59 µM

Q: What about the TGI (SK-MEL-5 melanoma) of the same compound?
A: 3 µM

Q: And the GI50 (SN12C renal)?
A: 1.57 µM

Q: And the TGI (SN12C renal)?
A: 3.09 µM

Q: And the GI50 (DU-145 prostate)?
A: 1.77 µM

Q: What about the TGI (DU-145 prostate) of the same compound?
A: 3.21 µM

Q: And the GI50 (MCF7 breast)?
A: 0.301 µM

Q: And the TGI (MCF7 breast)?
A: 2.24 µM

Q: And the GI50 (SK-OV-3 ovarian)?
A: 1.79 µM

Q: What about the TGI (SK-OV-3 ovarian) of the same compound?
A: 3.32 µM

Q: What about the GI50 (NCI-H460 lung) of the same compound?
A: 1.64 µM

Q: What about the TGI (NCI-H460 lung) of the same compound?
A: 3.5 µM

Q: And the GI50 (RPMI-8226 leukemia)?
A: 1.17 µM

Q: What about the TGI (RPMI-8226 leukemia) of the same compound?
A: 3.43 µM

Q: What about the GI50 (HOP-62 NSCLC) of the same compound?
A: 1.95 µM

Q: What about the TGI (HOP-62 NSCLC) of the same compound?
A: 3.9 µM

Q: And the GI50 (HT29 colon)?
A: 0.562 µM

Q: What about the TGI (HT29 colon) of the same compound?
A: 2.09 µM

Q: What about the GI50 (ACHN renal) of the same compound?
A: 1.69 µM

Q: And the TGI (ACHN renal)?
A: 3.08 µM

Q: And the GI50 (CCRF-CEM leukemia)?
A: 1.24 µM

Q: And the TGI (CCRF-CEM leukemia)?
A: 2.99 µM

Q: What about the GI50 (PC-3 prostate) of the same compound?
A: 1.26 µM

Q: What about the TGI (PC-3 prostate) of the same compound?
A: 2.52 µM

Q: And the GI50 (U251 CNS)?
A: 1.55 µM

Q: What about the TGI (U251 CNS) of the same compound?
A: 3.18 µM

Q: And the GI50 (SK-MEL-28 melanoma)?
A: 1.62 µM

Q: And the TGI (SK-MEL-28 melanoma)?
A: 2.99 µM
